The record followed here is ChEMBL document CHEMBL5390238, “The mechanisms of multidrug resistance of breast cancer and research progress on related reversal agents” (Bioorg Med Chem, 2023).

For one series, the system named is HaCaT. Put plainly: Cytotoxicity against human HaCaT cells incubated for 72 hrs by MTT assay. Type of series: functional, cell-based.
Another series relates to HepG2. The series can be described thus: Antiproliferative activity against human HepG2 cells assessed as inhibition of cell growth incubated for 48 hrs by MTT assay. The class given is functional, cell-based. The note with it: HepG2, 48 h.
In a further series the test system is HeLa. Put plainly: Antiproliferative activity against human HeLa cells assessed as inhibition of cell growth incubated for 72 hrs by MTT assay. The class given is functional, cell-based. Background: Tetrazolium dyes change colour on reduction, which living cells bring about.
For another series, the system named is HCT-116. The series can be described thus: Cytotoxicity against human HCT-116 cells assessed as cell viability measured as mitochondrial NADH-dependent dehydrogenase activity incubated for 72 to 120 hrs. Type of series: functional, cell-based.
Series [1] relates to MCF7. The series can be described thus: Antiproliferative activity against human MCF-7 cells assessed as inhibition of cell growth incubated for 48 hrs by MTT assay. The class given is functional, cell-based. Particulars: MCF7, 48 h.
In series [2] the test system is MCF7. Put plainly: Cytotoxicity against human MCF7 cells. Type of series: functional, cell-based.
For the next series, the system named is MDA-MB-231. Put plainly: Antiproliferative activity against human MDA-MB-231 cells assessed as cell growth inhibition. The class given is functional.
The subject of series [3] is MCF7. Put plainly: Antiproliferative activity against human MCF-7 cells assessed as cell growth inhibition. The class given is functional.
The nature of series [4]: Antiproliferative activity against human MCF7/BUS cells assessed as cell growth inhibition incubated for 6 days by MTT assay. The class given is functional, cell-based. Particulars: 144 h.
Another series concerns the target T1, Estrogen receptor (Homo sapiens, UniProt P03372).
T1 sequence (P03372 whole entry): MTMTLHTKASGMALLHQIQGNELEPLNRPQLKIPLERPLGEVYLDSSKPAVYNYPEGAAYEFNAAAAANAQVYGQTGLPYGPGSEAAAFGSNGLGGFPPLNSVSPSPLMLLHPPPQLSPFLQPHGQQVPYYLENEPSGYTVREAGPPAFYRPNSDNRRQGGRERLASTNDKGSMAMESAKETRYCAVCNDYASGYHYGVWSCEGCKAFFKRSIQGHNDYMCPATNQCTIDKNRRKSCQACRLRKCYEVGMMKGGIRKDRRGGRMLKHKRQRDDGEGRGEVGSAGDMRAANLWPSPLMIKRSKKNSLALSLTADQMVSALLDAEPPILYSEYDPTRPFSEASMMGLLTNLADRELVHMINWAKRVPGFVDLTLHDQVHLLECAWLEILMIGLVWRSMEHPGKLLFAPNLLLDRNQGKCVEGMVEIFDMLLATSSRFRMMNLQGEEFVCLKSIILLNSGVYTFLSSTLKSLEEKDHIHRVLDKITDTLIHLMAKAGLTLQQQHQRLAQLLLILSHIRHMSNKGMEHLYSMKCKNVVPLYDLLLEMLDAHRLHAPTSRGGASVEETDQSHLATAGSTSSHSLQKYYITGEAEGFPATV
Put plainly: Inhibition of human ERalpha expressed in Saccharomyces cerevisiae co-expressing lacZ using CPRG as substrate incubated for 48 hrs by Colorimetric assay.

A short description of series [5]: Cytotoxicity against human RL14 cells incubated for 72 hrs by resazurin blue assay. The class given is toxicity, cell-based. A general note: Alamar Blue is a resazurin reagent that responds to reducing activity.
In the next series the test system is NCI/ADR-RES. The series can be described thus: Cytotoxicity against human MCF7ADR cells. Type of series: functional, cell-based.
Series [6] relates to MCF7. Put plainly: Cytotoxicity against human MCF7 cells assessed as inhibition of cell growth in presence of paclitaxel by MTT assay. The class given is functional, cell-based.
Series [7] can be described thus: Antiproliferative activity against multidrug resistant human MDA-MB-231/TxR cells assessed as inhibition of cell growth preincubated for 24 hrs followed by taxol treatment for 24 hrs by MTT assay. Type of series: functional, cell-based.

In the case of `COc1cc(/C=C/c2ccc(SC)cc2)cc(OC)c1`, the half-inhibitory concentration (IC50) (commonly the concentration needed to halve the response being measured) with HaCaT amounted to 25300 nM.

For the compound `COc1cc([C@H]2OC[C@H]3[C@@H]2CO[C@@H]3c2ccc(O)c(OC)c2)ccc1O`, the 50% inhibitory concentration (IC50) in the series on HepG2 amounted to 51 nM.

On to `Cc1nc(C)c(COC(=O)[C@]23CCC(C)(C)C[C@H]2C2=CC[C@@H]4[C@@]5(C)CC[C@H](OC(=O)CN)C(C)(C)[C@@H]5CC[C@@]4(C)[C@]2(C)CC3)nc1C`, for which the half-maximal inhibitory concentration (IC50) with HeLa was determined as 3200 nM.

`COc1ccc(/C(C#N)=C/c2ccc(N3CCC(O)CC3)s2)cc1OC`: the IC50 with HCT-116 came out at 10 nM.

Take `CCNCc1ccccc1[Se][Se]c1ccccc1CNCC`: in the series with MCF7 [1], the half-maximal inhibitory concentration (IC50) was 15 nM.

`CO[C@]1(CC[C@H](C)CO[C@@H]2O[C@H](CO)[C@@H](O)[C@H](O)[C@H]2O)O[C@H]2C[C@H]3[C@@H]4CC[C@@H]5C[C@@H](O[C@@H]6O[C@H](CO)[C@H](O[C@@H]7O[C@H](CO)[C@@H](O)[C@H](O[C@@H]8OC[C@@H](O)[C@H](O)[C@H]8O)[C@H]7O[C@@H]7O[C@H](CO)[C@H](O)[C@H](O)[C@H]7O)[C@H](O)[C@H]6O)CC[C@]5(C)[C@H]4CC[C@]3(C)[C@H]2[C@@H]1C` displayed a half-maximal inhibitory concentration (IC50) in the series on MCF7 [2] of 5.2 nM.

With `CCC(Cc1ccccc1)=C(c1ccc(OCCN2CCCC2)cc1)c1ccc(OC(=O)NCc2ccccc2)cc1`, the GI50 (usually the concentration at which growth is held to half of that of the control) worked out at 1840 nM in the series on MDA-MB-231 and 90 nM in the series on MCF7 [3].

Take `CCC(Cc1ccc(OC)cc1)=C(c1ccc(O)cc1)c1ccc(OCCCN(C)C)cc1`: the values for the IC50 (in series [4]; at Estrogen receptor) were 96 nM and 510 nM, respectively.

Compound `COc1cccc2c1C(=O)c1c(O)c3c(c(O)c1C2=O)C[C@@](O)(C(=O)CO)C[C@@H]3O[C@H]1C[C@H](NC(=O)CNC(=O)Oc2ccc(C3=C(O)C(=O)C4C(O)=CC(O)=CC4O3)cc2O)[C@H](O)[C@H](C)O1` (stereo partly specified) showed an IC50 at 72 h in series [5] of 5 nM.

In turn, `O=c1cc(-c2ccc(O)cc2)oc2cc(O)cc(O)c12` [APIGENIN] returned an IC50 with NCI/ADR-RES of 200 nM.

In the case of `COc1cc(/C=C/C(=O)CC(=O)/C=C/c2ccc(O)c(OC)c2)ccc1O` [CURCUMIN], the IC50 in the series with MCF7 [6] was found to be 88 nM.

In turn, `Oc1ccc(/C=C/c2cc(O)cc(O)c2)cc1` [RESVERATROL] had a concentration for half-maximal inhibition (IC50) in the series with HaCaT of 183000 nM.

Turning to `CC/C(=C(\c1ccccc1)c1ccc(OCCN(C)C)cc1)c1ccccc1` [TAMOXIFEN], in series [4], the IC50 was 503 nM.

Consider `CC(C)=CCC[C@@H](C(=O)O)[C@H]1CC[C@@]2(C)C3=C(CC[C@]12C)[C@@]1(C)CC[C@H](O)C(C)(C)[C@@H]1CC3` [TRAMETENOLIC ACID], for which, in series [7], the IC50 came to 102 nM.
